Several values for one entry are separate records, joined by “and”; a condition that tells them apart may be missing. Equal entries are not always repeated.
Conditions: Liquid, Ebulliometric method (Recirculating still)

CCO [ethanol]
Conditions | vapor or sublimation pressure
307.52 K | 13.19 kPa
309.89 K | 15.05 kPa
312.21 K | 17.13 kPa
315.24 K | 20 kPa
318.42 K | 23.45 kPa
320.31 K | 25.72 kPa
322.13 K | 28.12 kPa
324.1 K | 30.85 kPa
325.96 K | 33.68 kPa
327.52 K | 36.2 kPa
329.57 K | 40 kPa
329.58 K | 40 kPa
331.49 K | 43.49 kPa
333.45 K | 47.62 kPa
335.16 K | 51.36 kPa
336.76 K | 55.12 kPa
338.72 K | 60.05 kPa
338.73 K | 60 kPa
340.19 K | 63.84 kPa
341.5 K | 67.56 kPa
343.06 K | 72.1 kPa
344.37 K | 75.99 kPa
345.69 K | 79.99 kPa and 80 kPa
347.1 K | 84.65 kPa
348.51 K | 89.37 kPa
349.83 K | 94.48 kPa
351.55 K | 101.31 kPa
351.65 K | 101.3 kPa

CC(=O)OC(C)C [1-methylethyl ethanoate]
Conditions | vapor or sublimation pressure
304.07 K | 10.57 kPa
306.28 K | 11.58 kPa
308.95 K | 13.35 kPa
312.53 K | 15.79 kPa
316.52 K | 19 kPa
317.77 K | 20 kPa
320.42 K | 22.45 kPa
323.45 K | 25.6 kPa
325.91 K | 28.24 kPa
328.97 K | 31.94 kPa
332.14 K | 36.19 kPa
334.75 K | 39.98 kPa and 40 kPa
337.73 K | 44.85 kPa
340.95 K | 50.51 kPa
344.18 K | 56.66 kPa
345.94 K | 60.03 kPa and 60 kPa
348.17 K | 65.32 kPa
350.35 K | 70.47 kPa
352.47 K | 75.52 kPa
354.29 K | 79.97 kPa and 80 kPa
356.48 K | 85.89 kPa
358.2 K | 90.5 kPa
359.77 K | 95.13 kPa
361.79 K | 101.26 kPa and 101.3 kPa
